Test [1] has as its target T1, ALR (SF-ALR) (Homo sapiens, UniProt P55789).
T1 construct: gene GFER; SF-ALR, residues 81–205
Briefly: 1H-15N HSQC NMR titration (slow exchange). Type of test: binding.

Test [2] has as its target T1, ALR (SF-ALR). Briefly: 1H-15N HSQC NMR titration of […] SF-ALR (slow exchange); IC50 from Amplex Red-HRP assay with pure enzyme. Type of test: biochemical.

Molecules are shown by their SMILES.

Usually IC50 stands for the midpoint of a concentration-inhibition curve. A high value points to lower potency.

T1 sequence (P55789 81-205): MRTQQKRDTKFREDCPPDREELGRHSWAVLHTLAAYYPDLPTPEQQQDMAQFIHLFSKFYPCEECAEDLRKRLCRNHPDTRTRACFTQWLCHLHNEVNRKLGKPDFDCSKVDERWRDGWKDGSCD

In the case of `CN(c1ccc(C2=NN=C(NC3CC3)SC2)cc1)S(C)(=O)=O` [MB-7], the “1H-15N HSQC NMR titration (slow exchange)” value on ALR (SF-ALR) [1] was “perturbation on the HN signals in the 2D NMR spectra (ES-1, MB-5, MB-7, MB-8, and MB-13)”.

The compound `CC(=O)Nc1cccc(-c2csc(Nc3ccc(C)cn3)n2)c1` [MB-8] had an IC50 at ALR (SF-ALR) [2] of 9.02 µM.

`Nc1ccc(N2CCN(C(=O)c3ccco3)CC2)cc1` [MB-13] yielded an IC50 against ALR (SF-ALR) [2] of 10.7 µM.

Values taken from publication PMC10816046, “The Interaction and Effect of a Small MitoBlock Library as Inhibitor of ALR Protein–Protein Interaction Pathway” (International Journal of Molecular Sciences, 2024).
